Experimental data: patent US20090226500A1, “SUTURES AND ANTI-SCARRING AGENTS” (Angiotech Pharmaceuticals, Inc, priority 2006, published 2009)
pIC50: −log10 of the molar value. Where a name gives a salt, the structure may show the parent alone.

The molecules below were run on human fibroblasts (assay: Cell proliferation of fibroblasts). Conditions: Fibroblast, 72 h, read-out: IC50 cell proliferation of fibroblasts.
Type: cell-based
Method: Fibroblasts at 70-90% confluency are trypsinized, replated at 600 cells/well in media in 96-well plates and allowed to attachment overnight. […] Each drug concentration is tested in triplicate wells. Plates containing fibroblasts and drug substance are incubated at 37° C. for 72 hours.
To terminate the assay, the media is removed by gentle aspiration. A 1/400 dilution of CYQUANT 400×GR™ dye indicator (Molecular Probes; Eugene, Oreg.) is added to 1× Cell Lysis buffer, and 200 μL of the mixture is added to the wells of the plate. Plates are incubated at room temperature, protected from light for 3-5 minutes.

SMILES | pIC50
NCCCNCCCCNCCCN [Spermine tetrahydrochloride] | 5.92 to 6.22

Same assay, conditions: Fibroblast, 72 hours, CYQUANT, read-out: IC50 cell proliferation of fibroblasts

SMILES | pIC50
CO[C@H]1/C=C\C=C(/C)C(=O)NC2=CC(=O)C(NCCN(C)C)=C(C[C@@H](C)C[C@H](OC)[C@H](O)[C@@H](C)/C=C(\C)[C@@H]1OC(N)=O)C2=O [17-DMAG, 17-dimethylaminoethylamino-17-demethoxy-geldanamycin] | 8.00 to 10.00
O=C(O)C[C@H](O)C[C@H](O)/C=C/c1c(C2CC2)nc2ccccc2c1-c1ccc(F)cc1 [Pitavastatin] | 6.22 to 7.00
CC[C@H](C)C(=O)O[C@H]1C[C@H](O)C=C2C=C[C@H](C)[C@H](CC[C@@H](O)C[C@@H](O)CC(=O)O)[C@H]21 [Pravastatin] | 5.00 to 5.92
O=c1c(O)c(-c2ccc(O)c(O)c2)oc2cc(O)cc(O)c12 [Quercetin dihydrate] | 6.22 to 7.00
C#C[C@]1(O)CC[C@H]2[C@@H]3CCc4cc(OC5CCCC5)ccc4[C@H]3CC[C@@]21C [Quinestrol, 17a-Ethynylestradiot 3-cyclopentyl ether] | 5.00 to 5.92
C[C@@H]1C[C@H]2O[C@@H]2/C=C\C=C\C(=O)Cc2c(Cl)c(O)cc(O)c2C(=O)O1 [Radicicol] | 7.00 to 8.00
Cc1nc2ccc(CN(C)c3ccc(C(=O)N[C@@H](CCC(=O)O)C(=O)O)s3)cc2c(=O)[nH]1 [Raltitrexed] | 7.00 to 8.00
COc1ccc(C2CNC(=O)C2)cc1OC1CCCC1 (stereo not drawn) [Rolipram] | 6.22 to 7.00
CC(C)c1nc(N(C)S(C)(=O)=O)nc(-c2ccc(F)cc2)c1/C=C/[C@@H](O)C[C@@H](O)CC(=O)O [Rosuvastatin] | 5.00 to 5.92
CC(=O)c1c(O)c(C)c(O)c(Cc2c(O)c3c(c(C(=O)/C=C/c4ccccc4)c2O)OC(C)(C)C=C3)c1O [Rottlerin] | 5.00 to 5.92
CC(=O)OCC(=O)NCCCOc1cccc(CN2CCCCC2)c1 [Roxatidine acetate] | 5.92 to 6.22
Nc1nccc(-c2c(-c3ccc(F)cc3)ncn2C2CCNCC2)n1 [SB 220025] | 5.00 to 5.92
COc1cccc(-c2ccc(NC(=O)C3=C(C(=O)O)CCC3)c(F)c2)c1 [SC12267] | 5.00 to 5.92
Nc1nc2c(cnn2CCc2ccccc2)c2nc(-c3ccco3)nn12 [SCH-58261] | 5.00 to 5.92
CCCCCCCCCCCCCCC[C@H](O)[C@@H](N)CO [Safingol, L-threo-Dihydrosphingosine] | 5.92 to 6.22
O=C(/C=C/c1ccccc1)NC(NC(=S)Nc1cccc2cccnc12)C(Cl)(Cl)Cl (stereo not drawn) [Salubrinal] | 5.00 to 5.92

SMILES | pIC50
CCCc1nn(C)c2c(=O)[nH]c(-c3cc(S(=O)(=O)N4CCN(C)CC4)ccc3OCC)nc12 [Sildenafil Citrate] | 5.00 to 5.92
NCCCCNCCCN [Spermidine trihydrochloride] | 5.00 to 5.92
Cc1ccnc(NS(=O)(=O)c2ccc(N)cc2)n1 [Sulfamerazine] | 5.00 to 5.92
COc1cc([C@@H]2c3cc4c(cc3[C@@H](O[C@@H]3O[C@@H]5CO[C@@H](c6cccs6)O[C@H]5[C@H](O)[C@H]3O)[C@H]3COC(=O)[C@H]23)OCO4)cc(OC)c1O [Teniposide] | 7.00 to 8.00
CN(C/C=C/C#CC(C)(C)C)Cc1cccc2ccccc12 [Terbinafine] | 7.00 to 8.00
C/C=C(/C)C(=O)O[C@H]1C(C)=C2[C@H]([C@@H]1OC(=O)CCCCCCC)[C@@](C)(OC(C)=O)C[C@H](OC(=O)CCC)[C@@]1(O)[C@H]2OC(=O)[C@@]1(C)O [Thapsigargin] | 8.00 to 10.00
Cn1c(=O)c2[nH]cnc2n(C)c1=O [Theophylline] | 8.00 to 10.00
Cc1cccc(Nc2ccncc2S(=O)(=O)NC(=O)NC(C)C)c1 [Torasemide] | 7.00 to 8.00
CC(=O)Oc1cc(C(F)(F)F)ccc1C(=O)O [Triflusal] | 7.00 to 8.00
CC(C)[C@]12O[C@H]1[C@@H]1O[C@]13[C@]1(O[C@H]1C[C@H]1C4=C(CC[C@@]13C)C(=O)OC4)[C@@H]2O [Triptolide] | 8.00 to 10.00
Oc1ccnc(O)n1 [Uracil, 2,4-Dihydroxypyrimidine] | 7.00 to 8.00
CC[C@]12CCCN3CCc4c(n(c5ccccc45)[C@@](O)(C(=O)OC)C1)[C@@H]32 [Vincamine] | 8.00 to 10.00
CC(=O)CC(c1ccccc1)c1c(O)c2ccccc2oc1=O (stereo not drawn) [Warfarin, 3-(a-Acetonylbenzyl)-4-hydroxycoumarin sodium salt] | 8.00 to 10.00
COc1cc(O)c2c(c1)oc(=O)c1c3cc(O)c(O)cc3oc21 [Wedelolactone] | 5.00 to 5.92
CO[C@H]1C[C@@H]2CC[C@@H](C)[C@@](O)(O2)C(=O)C(=O)N2CCCC[C@H]2C(=O)O[C@H]([C@H](C)C[C@@H]2CC[C@H](n3cnnn3)[C@H](OC)C2)CC(=O)[C@H](C)/C=C(\C)[C@@H](O)[C@@H](OC)C(=O)[C@H](C)C[C@H](C)/C=C/C=C/C=C/1C [Zotarolimus] | 8.00 to 10.00
C/C1=C/C[C@@H](/C(C)=C/c2csc(C)n2)OC(=O)C[C@H](O)C(C)(C)C(=O)[C@H](C)[C@@H](O)[C@@H](C)CCC1 [epothilone D] | 7.00 to 8.00

What follows are molecules tested on Smooth muscle cells (assay: Proliferation of smooth muscle cells). Conditions: 72 h, read-out: IC50 proliferation of smooth muscle cells.
Type: cell-based
Method: Smooth muscle cells at 70-90% confluency were trypsinized, replated at 600 cells/well in media in 96-well plates and allowed to attachment overnight. Paclitaxel was prepared in DMSO at a concentration of 10^−2 M and diluted 10-fold to give a range of stock concentrations (10^−8 M to 10^−2 M). […] Each drug concentration was tested in triplicate wells. Plates containing cells and paclitaxel were incubated at 37° C. for 72 hours.
To terminate the assay, the media was removed by gentle aspiration A 1/400 dilution of CYQUANT 400×GR dye indicator (Molecular Probes; Eugene, Oreg.) was added to 1× Cell Lysis buffer, and 200 μL of the mixture was added to the wells of the plate. Plates were incubated at room temperature, protected from light for 3-5 minutes.

SMILES | pIC50
C/C1=C/C[C@@H](/C(C)=C/c2csc(C)n2)OC(=O)C[C@H](O)C(C)(C)C(=O)[C@H](C)[C@@H](O)[C@@H](C)CCC1 [epothilone D] | 8.30

Same assay, conditions: 72 hours, CYQUANT; read-out: IC50 proliferation of smooth muscle cells

SMILES | pIC50
CO[C@H]1/C=C\C=C(/C)C(=O)NC2=CC(=O)C(NCCN(C)C)=C(C[C@@H](C)C[C@H](OC)[C@H](O)[C@@H](C)/C=C(\C)[C@@H]1OC(N)=O)C2=O [17-DMAG, 17-dimethylaminoethylamino-17-demethoxy-geldanamycin] | 7.77
Nc1nc(Cl)nc2c1ncn2[C@H]1C[C@H](O)[C@@H](CO)O1 [cladribine, 2-Chloro-2-deoxyadenosine] | 6.86
C=C1[C@@H](C)[C@H]2[C@H](Cc3ccccc3)NC(=O)[C@]23OC(=O)/C=C/C(=O)CCC[C@@H](C)C/C=C/[C@H]3[C@@H]1O [cytochalasin A] | 6.66
CC(=O)[C@]1(O)Cc2c(O)c3c(c(O)c2[C@@H](O[C@H]2C[C@H](N)[C@H](O)[C@H](C)O2)C1)C(=O)c1ccccc1C3=O [idarubicin] | 7.42
CCC(C)n1ncn(-c2ccc(N3CCN(c4ccc(OCC5COC(Cn6cncn6)(c6ccc(Cl)cc6Cl)O5)cc4)CC3)cc2)c1=O (stereo not drawn) [itraconazole] | 6.10
CC[C@H](C)C(=O)O[C@H]1C[C@@H](C)C=C2C=C[C@H](C)[C@H](CC[C@@H]3C[C@@H](O)CC(=O)O3)[C@H]21 [lovastatin] | 6.01
CO[C@@]12[C@H](COC(N)=O)C3=C(C(=O)C(C)=C(N)C3=O)N1C[C@@H]1N[C@@H]12 [mitomycin C] | 7.28
COC(=O)[C@@H]1c2cc3c(c(O)c2[C@@H](O[C@@H]2O[C@@H](C)[C@H](OC)[C@@](C)(OC)[C@H]2OC)C[C@]1(C)O)C(=O)c1c(O)cc2c(c1C3=O)O[C@@H]1O[C@@]2(C)[C@H](O)[C@@H](N(C)C)[C@@H]1O [nogalamycin] | 7.31
